Legend:
Format in all cases: cell-based
[1] = tested on: UTP-stimulated Ca2+ response in HT-29 cells; assay: Ca FLIPR TETRA assay, ANTAGONIST mode, activator 0.6 μM UTP; settings: HT-29 cells, activator 0.6 μM UTP
Experimental: (§1) Protocol for Testing PAR2 Compounds in ANTAGONIST Mode Using the Ca FLIPR^TETRA Assay (384 Well).
(§2) 23000 HT-29 cells (ATCC# HTB-38) were plated in 384-well black, transparent-flat bottom plates and incubated in 25 uL of 1% FBS/McCoy's media ON at 37° C. under an atmosphere of 5% CO2. The following day, 25 uL FLIPR calcium 5 Molecular Devices assay reagent (Cat: R-8186) was added. Plates were incubated at 37° C. and r. t. for 45 min and 15 min, respectively. Compounds dilutions were prepared in 100% DMSO using a Biomek FX and diluted 20-fold in HBSS and then 5.5 uL was added directly to the cells by the FLIPR^TETRA (10× dilution) using FLIPR Tetra Pipette tips, black, non-sterile, 384 Molecular Devices (Cat: 9000-0764).
(§3) A first read was performed to determine whether the test compounds on their own can activate Ca^2+ responses. The cells were incubated with the compounds for 30 min at r. t. and then read in ANTAGONIST mode in the same plate by stimulating with 6.2 uL of a fixed concentration of the activator: final concentrations 8 μM SLIGKV, 1 U/mL Thrombin, 3.1 U/mL trypsin, or 0.6 μM UTP.

PAR2 (HT-29 cells) [2] = target: T1, PAR2 (HT-29 cells) (Homo sapiens, UniProt P55085); assay: Ca FLIPR TETRA assay, ANTAGONIST mode, activator 3.1 U/mL trypsin; settings: for IC50: HT-29 cells, activator 3.1 U/mL trypsin
T1 construct: host or cells: HT-29
T1 sequence (P55085 26-397): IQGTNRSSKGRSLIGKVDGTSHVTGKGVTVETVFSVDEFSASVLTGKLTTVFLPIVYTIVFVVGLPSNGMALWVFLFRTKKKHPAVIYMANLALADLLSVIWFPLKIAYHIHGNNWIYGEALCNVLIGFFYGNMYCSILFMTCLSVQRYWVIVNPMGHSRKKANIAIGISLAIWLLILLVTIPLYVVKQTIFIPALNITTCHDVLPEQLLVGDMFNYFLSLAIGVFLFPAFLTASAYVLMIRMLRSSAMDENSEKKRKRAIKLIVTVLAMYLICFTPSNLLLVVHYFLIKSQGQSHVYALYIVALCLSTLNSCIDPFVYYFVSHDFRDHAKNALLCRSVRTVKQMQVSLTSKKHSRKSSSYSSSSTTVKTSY
Experimental: as §1, §2, §3

[3] = tested on: Thrombin-stimulated Ca2+ response in HT-29 cells; assay: Ca FLIPR TETRA assay, ANTAGONIST mode, activator 1 U/mL Thrombin; settings: HT-29 cells, activator 1 U/mL Thrombin
Experimental: as §1, §2, §3

PAR2 (HT-29 cells) [4] = target: T1, PAR2 (HT-29 cells); assay: Ca FLIPR TETRA assay, ANTAGONIST mode, activator 8 μM SLIGKV; settings: for IC50: HT-29 cells, activator 8 μM SLIGKV
Experimental: as §1, §2, §3

[5] = Method A: maximal concentration of antagonist 0.1, 1 or 2 μM
[6] = maximal antagonist concentration per Method (A: 0.1, 1 or 2 μM; B: 50 μM)

| SMILES | IC50 ([1]; Homo sapiens) [nM] | IC50 (PAR2 (HT-29 cells) [2]; [5]) [nM] | IC50 ([3]; Homo sapiens) [nM] | IC50 (PAR2 (HT-29 cells) [4]; [5]) [nM] | IC50 (PAR2 (HT-29 cells) [2]; [6]) [nM] | IC50 (PAR2 (HT-29 cells) [4]; [6]) [nM] | IC50 [1] [nM] | Trypsin, % @ 50 (PAR2 (HT-29 cells) [2]; @ 50 (μM)) [% @ 50] | IC50 [3] [nM] | SLIGKV, % @ 50 (PAR2 (HT-29 cells) [4]; @ 50 (μM)) [% @ 50] |
| --- | --- | --- | --- | --- | --- | --- | --- | --- | --- | --- |
| Cc1ccc(C(=O)O)c(N2CCN(C(=O)c3cc4nc(-c5ccc(Cl)c(F)c5)cc(C(C)(C)C)c4o3)C(C)(C)C2)n1 [Example I-352] | 2000 | 3.1 | > 2000 | 2.1 |  |  |  |  |  |  |
| CC(C)(C)c1cc(C2CC3(CCC3)C2)nc2cc(C(=O)N3CCN(C(=O)CCC(=O)O)CC3(C)C)oc12 [Example I-292] | > 2000 |  | > 2000 |  | 7.1 | 3.5 |  |  |  |  |
| CC(C)c1cc(-c2ccc(F)cc2)nc2cc(C(=O)N3CCN(C(=O)CC#N)CC3(C)C)oc12 [Example I-9] | 4500 |  | 9600 |  | 83 | 90 |  |  |  |  |
| CC(C)(C)c1cc(-c2ccc(F)cc2)nc2cc(C(=O)N3CCN(C(=O)[C@H]4C[C@@](C)(O)C4)C(C)(C)C3)oc12 [Example I-314] | > 2000 | 730 | > 2000 | 190 |  |  |  |  |  |  |
| CC(C)(C)c1cc(-c2ccc(Cl)cc2)nc2cc(C(=O)N3CCN(c4cnccn4)CC3(C)C)oc12 [Example I-368] |  | 9.5 |  | 12 |  |  |  |  |  |  |
| CC(C)c1cc(-c2ccc(F)cc2)nc2cc(C(=O)N3CCN(C(=O)C4(O)CCOCC4)CC3)oc12 [Example I-95] | 14000 |  | 15000 |  | 8900 | 10000 |  |  |  |  |
| CC(C)c1cc(-c2ccc(F)cc2)nc2cc(C(=O)N3CCN(S(=O)(=O)c4cn[nH]c4)CC3(C)C)oc12 [Example I-147] | > 1000 |  | > 1000 |  | 34 | 20 |  |  |  |  |
| CC(C)c1cc(-c2ccc(F)cc2)nc2cc(C(=O)N3CCN(C(=O)OC(C)(C)C)C[C@H]3C)oc12 [Example I-78] |  |  |  |  |  |  | > 50000 | 65 | > 50000 | 70 |
| CC(C)(C)c1cc(-c2ccc(Cl)cc2)nc2cc(C(=O)N3CCN(c4cnc(C(=O)O)cn4)CC3(C)C)oc12 [Example I-452] | > 2000 | 6.6 | > 2000 | 8.9 |  |  |  |  |  |  |
| CCC(C)(O)C(=O)N1CCN(C(=O)c2cc3nc(-c4ccc(F)cc4)cc(C4(C)CC4)c3o2)C(C)(C)C1 (centres unmarked) [Example I-35] | 11000 |  | 14000 |  | 49 | 34 |  |  |  |  |
| CC1(C)CCC(c2cc(C(C)(C)C)c3oc(C(=O)N4CCN(C(=O)C5CCC(C(=O)O)O5)CC4(C)C)cc3n2)CC1 (centres unmarked) [Example I-254] | > 2000 |  | > 2000 |  | 20 | 8.5 |  |  |  |  |
| Cc1nc(C(=O)O)cnc1C1CCN(C(=O)c2cc3nc(C4CCC(C)(C)CC4)cc(C(C)(C)C)c3o2)C(C)(C)C1 (centres unmarked) [Example I-384] |  | 2.2 |  | 2.5 |  |  | > 2000 |  | > 2000 |  |
| CC(C)(C)c1cc(-c2ccc(F)cc2)nc2cc(C(=O)N3CCN(C(C)(C)C)C(=O)C3(C)C)oc12 [Example I-308] | > 2000 | 37 | > 2000 | 14 |  |  |  |  |  |  |
| CC1(C)CCC(c2cc(C(C)(C)C)c3oc(C(=O)N4CCN(C(=O)C5CC6(CC(C(=O)O)C6)C5)CC4(C)C)cc3n2)CC1 (centres unmarked) [Example I-364] | 1700 | 1.2 | > 2000 | 1.2 |  |  |  |  |  |  |
| Cc1ncc(N2CCN(C(=O)c3cc4nc(C5CCC(C)(C)CC5)cc(C(C)(C)C)c4o3)C(C)(C)C2)nc1C(=O)O [Example I-544] | > 2000 | 3.3 | > 2000 | 2.5 |  |  |  |  |  |  |
| Cc1cc(C(=O)O)nc(N2CCN(C(=O)c3cc4nc(-c5ccc(Cl)c(F)c5)cc(C(C)(C)C)c4o3)C(C)(C)C2)c1 [Example I-494] | > 2000 | 0.1 | > 2000 | > 2000 |  |  |  |  |  |  |

| SMILES | IC50 ([1]; Homo sapiens) [nM] | IC50 (PAR2 (HT-29 cells) [2]; [5]) [nM] | IC50 ([3]; Homo sapiens) [nM] | IC50 (PAR2 (HT-29 cells) [4]; [5]) [nM] | IC50 (PAR2 (HT-29 cells) [2]; [6]) [nM] | IC50 (PAR2 (HT-29 cells) [4]; [6]) [nM] | IC50 [1] [nM] | Trypsin, % @ 50 (PAR2 (HT-29 cells) [2]; @ 50 (μM)) [% @ 50] | IC50 [3] [nM] | SLIGKV, % @ 50 (PAR2 (HT-29 cells) [4]; @ 50 (μM)) [% @ 50] |
| --- | --- | --- | --- | --- | --- | --- | --- | --- | --- | --- |
| CC1(c2cc(-c3ccc(F)cc3)nc3cc(C(=O)N4CCN(C(=O)C5(c6ccc(Cl)cc6)CC5)CC4(C)C)oc23)CC1 [Example I-53] | > 50000 |  | > 50000 |  | 74 | 53 |  |  |  |  |
| CCC(CC)c1cc(-c2ccc(F)cc2)nc2cc(C(=O)N3CCN(c4cn[nH]c4)C(=O)C3(C)C)oc12 [Example I-301] | > 2000 | 4 | > 2000 | 3 |  |  |  |  |  |  |
| CN1CCN(C(=O)c2cc3nc(C4CCC(F)(F)CC4)cc(C(C)(C)C)c3o2)C(C)(C)C1=O [Example I-312] | > 2000 | 260 | > 2000 | 170 |  |  |  |  |  |  |
| Cc1ccc(N2CCN(C(=O)c3cc4nc(-c5ccc(Cl)cc5)cc(C(C)(C)C)c4o3)C(C)(C)C2)nc1 [Example I-395] | > 2000 | 40.5 | > 2000 | 56 |  |  |  |  |  |  |
| CC1(C)C(=O)NCCN1C(=O)c1cc2nc(-c3ccc(F)cc3)cc(C3CCCCC3)c2o1 [Example I-211] | > 2000 |  | > 2000 |  | 17 | 7 |  |  |  |  |
| Cc1nccnc1N1CCN(C(=O)c2cc3nc(-c4ccc(Cl)c(F)c4)cc(C(C)(C)C)c3o2)C(C)(C)C1=O [Example I-359] | > 2000 | 43 | > 2000 | 37 |  |  |  |  |  |  |
| CC(C)c1cc(-c2ccc(F)cc2)nc2cc(C(=O)N3CCN(C(=O)C4(O)CCOCC4)C[C@H]3C)oc12 [Example I-100] | 13000 |  | 16000 |  | 11000 | 9100 |  |  |  |  |
| CC(C)c1cc(-c2ccc(F)cc2)nc2cc(C(=O)N3CCN(C(=O)C(C)(C)O)C[C@@H]3C)oc12 [Example I-106] | 14000 |  | 15000 |  | 7700 | 7800 |  |  |  |  |
| CC1(C)CN(C(=O)[C@H]2C[C@@](C)(O)C2)CCN1C(=O)c1cc2nc(-c3ccc(Cl)c(F)c3)cc(C3(C#N)CC(F)(F)C3)c2o1 [Example I-300] | > 2000 | 1.6 | > 2000 | 1.6 |  |  |  |  |  |  |
| Cn1cnnc1N1CCN(C(=O)c2cc3nc(-c4ccc(Cl)c(F)c4)cc(C(C)(C)C)c3o2)C(C)(C)C1 [Example I-318] | > 2000 | 4.6 | > 2000 | 2.8 |  |  |  |  |  |  |
| Cc1cc(C(=O)O)c(N2CCN(C(=O)c3cc4nc(-c5ccc(Cl)c(F)c5)cc(C(C)(C)C)c4o3)C(C)(C)C2)nn1 [Example I-528] | > 2000 | 250 | > 2000 | 270 |  |  |  |  |  |  |
| CC(C)(C)c1cc(-c2ccc(Cl)c(F)c2)nc2cc(C(=O)N3CCN(c4ncccc4C(=O)O)CC3(C)C)oc12 [Example I-351] | > 2000 | 9 | > 2000 | 5.1 |  |  |  |  |  |  |
| CC(CC(=O)N1CCN(C(=O)c2cc3nc(-c4ccc(Cl)c(F)c4)cc(C(C)(C)C)c3o2)C(C)(C)C1)C(=O)O (single isomer, unassigned) [Example I-514] |  | 1.1 |  | 1.3 |  |  |  |  | > 2000 |  |
| CC(C)(C)c1cc(-c2ccc(Cl)cc2)nc2cc(C(=O)N3CCNC(=O)C3(C)C)oc12 [Example I-157] |  |  |  |  | 7.9 | 9.2 |  |  |  |  |
| CC(C)(C)c1cc(-c2ccc(Cl)c(F)c2)nc2cc(C(=O)N3CCN(c4nc(C(=O)O)co4)CC3(C)C)oc12 [Example I-290] |  |  |  |  | 6.1 | 3.2 |  |  |  |  |
| CC(C)(C)c1cc(-c2ccc(Cl)c(F)c2)nc2cc(C(=O)N3CCNC(=O)C3(C)C)oc12 [Example I-176] |  |  |  |  | 5 | 4.8 |  |  |  |  |

— patent US20180057505A1, “BICYCLIC HETEROARYL COMPOUNDS USEFUL AS INHIBITORS OF THE PAR-2 SIGNALING PATHWAY” (VERTEX PHARMACEUTICALS INCORPORATED, priority 2015, published 2018)
